“Also recorded” adds a separate entry of the source.
Assays:
mouse L1210 leukemia = mouse L1210 leukemia model; Atwell, Cain and Seelye 1972; cited from earlier work
P388 leukemia = P388 leukemia in vivo (increase in lifespan of mice, i.p. tumour); conditions: for active (P388): P388, at the stated dose
Lewis lung carcinoma = Lewis lung carcinoma in vivo (increase in lifespan of mice, i.v. tumour); conditions: for ILS (percentage increase in lifespan): values without asterisk, controls 17 days; for active (Lewis lung): at the stated dose
[1] = Potency and antitumour activity in in vivo test systems (general statements)
Xanthomonas phaseoli = experiment: Antibacterial activity
Aerobacter aerogenes = experiment: Antibacterial activity
Alcaligenes viscolactis = experiment: Antibacterial activity
Staphylococcus aureus = experiment: Antibacterial activity
Neisseria catarrhalis = experiment: Antibacterial activity
Streptococcus faecalis = experiment: Antibacterial activity
Escherichia coli = experiment: Antibacterial activity
[2] = test system: Micrococcus lysodeikticus; experiment: Antibacterial activity
Sarcina lutea = experiment: Antibacterial activity
Bacillus subtilis = experiment: Antibacterial activity
[3] = 3'-substituted AMSA analogues; earlier publications; cited from earlier work
[4] = Lewis lung, at OD on days 1, 5, 9, >40% statistically significant

SMILES: CS(=O)(=O)Nc1ccc(Nc2c3ccccc3nc3ccccc23)cc1 [AMSA, 4'-(9-acridinylamino) methanesulphonanilide]
- antitumour activity (mouse L1210 leukemia): good antitumour activity

SMILES: CNc1cc(NS(C)(=O)=O)ccc1Nc1c2ccccc2nc2ccccc12 [Compound 1]
- active (P388) (P388 leukemia): Y
- ILS (percentage increase in lifespan) (Lewis lung carcinoma; [4]): 85%
- active (Lewis lung) (Lewis lung carcinoma; Lewis lung): Y
- potency and antitumour activity (in words) [1]: increased potency and antitumour activity compared to the unsubstituted AMSA and the 3'-methoxy derivative m-AMSA (amsacrine)

SMILES: CNc1cc(NS(C)(=O)=O)ccc1Nc1c2ccccc2nc2c(C)cccc12 [Compound 12]
- antibacterial activity (Xanthomonas phaseoli): active
- ILSmax (percentage increase in lifespan), marked * (P388 leukemia; P388, at OD on days 1, 5, 9, […], >20% statistically significant): 157%
- active (P388) (P388 leukemia): Y
- antibacterial activity (Aerobacter aerogenes): active
- antibacterial activity (Alcaligenes viscolactis): active
- ILS (percentage increase in lifespan), marked * (Lewis lung carcinoma; Lewis lung, at OD on days 1, 5, 9, […], >40% statistically significant): 159%
- active (Lewis lung) (Lewis lung carcinoma; Lewis lung): Y
- antibacterial activity (Staphylococcus aureus): active
- antibacterial activity (Neisseria catarrhalis): active
- antibacterial activity (Streptococcus faecalis): active
- antibacterial activity (Escherichia coli): active
- antibacterial activity [2]: active
- antibacterial activity (Sarcina lutea): active
- antibacterial activity (Bacillus subtilis): active

SMILES: COc1cc(NS(C)(=O)=O)ccc1Nc1c2ccccc2nc2ccccc12 [m-AMSA, 4'-(9-acridinylamino)methanesulphon-m-anisidide, reference compound]
- ILSmax (percentage increase in lifespan) (P388 leukemia; P388, at OD on days 1, 5, 9, values without asterisk, >20% statistically significant, controls 11 days): 78%
- active (P388) (P388 leukemia): Y
- antitumour activity / dose potency (in words) [3]: increased dose potency
- ILS (percentage increase in lifespan) (Lewis lung carcinoma; [4]): 38%
- active (Lewis lung) (Lewis lung carcinoma; Lewis lung): Y/N
- Lewis lung activity (in words) (Lewis lung carcinoma; tumour implanted intravenously, ILS of 40% required for statistical significance): minimal activity; also recorded: strictly inactive

Source: patent publication US4795826A, “Ortho-phenylenediamine compounds” (priority 1986, dated 1989)
